Reference: ChEMBL document CHEMBL1129927, “Further evidence for a dopamine reuptake pharmacophore. The effect of N-methylation on Threo-methylphenidate and its analogs” (Bioorg Med Chem Lett, 1997)

Experiments:
[1] = molecular target: Sodium-dependent dopamine transporter (Rattus norvegicus, UniProt P23977); assay: The compound was tested for its affinity at the rat striatal dopamine transporter by the displacement of [3H]WIN-35428
[2] = Hill coefficient was determined
[3] = Ratio of inhibitory concentration of compound 5d to 6d

Sequence of Sodium-dependent dopamine transporter (P23977 whole entry): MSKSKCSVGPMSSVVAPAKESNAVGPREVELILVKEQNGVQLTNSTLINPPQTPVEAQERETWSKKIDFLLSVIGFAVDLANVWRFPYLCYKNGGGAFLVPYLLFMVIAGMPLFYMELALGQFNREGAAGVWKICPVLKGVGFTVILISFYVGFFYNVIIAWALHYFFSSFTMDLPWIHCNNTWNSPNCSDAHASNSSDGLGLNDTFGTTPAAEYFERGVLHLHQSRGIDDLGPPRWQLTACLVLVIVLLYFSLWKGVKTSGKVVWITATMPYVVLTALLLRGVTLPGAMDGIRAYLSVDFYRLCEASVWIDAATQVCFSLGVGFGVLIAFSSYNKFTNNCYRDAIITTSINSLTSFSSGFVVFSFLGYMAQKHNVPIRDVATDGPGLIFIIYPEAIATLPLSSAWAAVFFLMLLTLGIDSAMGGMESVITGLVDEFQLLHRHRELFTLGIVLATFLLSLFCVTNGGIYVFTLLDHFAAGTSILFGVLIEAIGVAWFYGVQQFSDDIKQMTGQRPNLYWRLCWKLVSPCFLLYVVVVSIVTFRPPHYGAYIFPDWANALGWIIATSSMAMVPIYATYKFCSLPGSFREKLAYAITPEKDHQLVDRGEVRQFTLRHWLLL

SMILES | IC50 [1] | Hill coefficient [2] | Ratio [3]
COC(=O)[C@H](c1ccc(O)cc1)[C@H]1CCCCN1C | 1220 nM | 1.06 | 
COC(=O)[C@H](c1cccc(Cl)c1)C1CCCCN1 (stereo not given in full) | 5.1 nM | 0.95 | 
COC(=O)[C@H](c1ccccc1)[C@H]1CCCCN1C | 500 nM | 1 | 
COC(=O)[C@H](c1ccccc1)[C@H]1CCCCN1 |  | 0.9 | 
COC(=O)[C@H](c1ccc(C)cc1)C1CCCCN1 (stereo not given in full) | 33 nM | 1.05 | 4.2
COC(=O)[C@H](c1cccc(C)c1)[C@H]1CCCCN1C | 108 nM | 1 | 
COC(=O)[C@H](c1cccc(Cl)c1)[C@H]1CCCCN1C | 161 nM | 0.96 | 
COC(=O)[C@H](c1ccc(C)cc1)[C@H]1CCCCN1C | 139 nM | 1.03 | 
COC(=O)[C@H](c1cccc(C)c1)[C@H]1CCCCN1 | 21.4 nM | 1.01 | 
COC(=O)[C@H](c1ccc(O)cc1)[C@H]1CCCCN1 | 98 nM | 1.07 | 
